This is an account of results in patent US7109190B2, “Carbacephem β-lactam antibiotics” (Trine Pharmaceuticals, Inc., priority 2003, dated 2006).

The test system of series [1] is human serum. In words: Human serum binding (ultrafiltration, HPLC). Format: in vitro ADME. The method, then: The following procedure may be used to evaluate serum binding: compounds are incubated in serum for 10 min at 37° C. in a shaking water bath. Then a serum ultrafiltrate is obtained by centrifugation of ultra-filtration units (Amicon Centrifree) for, say, 20 minutes at 25° C. Compound content in the ultrafiltrate is quantified by HPLC using standards prepared in blank ultra-filtrate undergoing similar processing.
(§1) It is expected that the compounds will be equally, if not more, potent against other resistant strains of bacteria as well as bacteria which are susceptible to current clinical antibiotics. The range of utility of the compounds herein can easily be established by those skilled in the art using the disclosures herein and all bacteria within the useful range are within the scope of this invention.

Series [2] deals with MRSA COL. In words: In vitro MIC by agar dilution against MRSA COL. Format: cell-based. The conditions noted are these: Staphylococcus aureus; MRSA COL isolate; read-out: MIC (μg/mL) MRSA COL.
From the text: (§2) The in vitro MIC for bacterial isolates may be obtained in the following manner: a test compound is incorporated into a series of two-fold dilutions in liquified Mueller-hinton agar. Upon solidification, a number of different bacterial strains are spot-inoculated onto the surface of the agar. […] The procedures used in these experiments are generally those standardized by the National Committee for Clinical Laboratory Standards (NCCLS), as set forth in the NCCLS publication entitled “Methods for Dilution Antimicrobial Susceptibility Tests (1991), which is incorporated by reference as if fully set forth herein. The following exemplified such a procedure although it is to be understood that modifications of the procedure may be implemented as required.
(§3) Aliquots of the test compounds are prepared in phosphate buffered saline (PBS) at pH approximately 7.2. Tween 20 or dimethylsulfoxide (DMSO) are added if necessary to solubilize the compound and vortexing, sonicating and gentle heating may also be employed. Typically, the concentration of the stock solution is 10× that of the highest compound concentration to be used. Serial two-fold dilutions are prepared down to the lowest concentration to be tested. Each compound concentration is tested in duplicate. A control plate using a reference drug such as cefotaxime, vancomycin or imipenem is used as a postive control. A negative control plate containing no drug or compound is also prepared.
(§4) A few isolated colonies are retrieved from a pure culture prepared on agar plates and transferred to a tube of nutrient broth and allowed to grow at 35–36° C. until log-phase growth is achieved, usually about 4–6 hours. The broth is then added dropwise to PBS until the turbidity of the suspension matches a 0.5 McFarland standard which is equal to approximately 10^8 cfu/ml.
(§5) The test plates containing the compound dilutions and the control plates are then inoculated with the PBS suspension. The plates are then incubated for 16–20 hours at 35–36° C. The plates are then observed to determine which concentration of the test compound is the MIC.
as §1

Series [3] has as its system MRSA 76. In words: In vitro MIC by agar dilution against MRSA 76. The class given is cell-based. The conditions noted are these: Staphylococcus aureus; MRSA 76 isolate; read-out: MIC (μg/mL) MRSA 76.
From the text: as §2, §3, §4, §5, §1

In series [4] the test system is MRSA. The conditions noted are these: MRSA potency, background prior-art compounds; cited from earlier work.
The test system of series [5] is serum protein. The note with it: background prior-art compounds; cited from earlier work.

In brackets after ≈: the same amount, converted by molar mass.

As to `Nc1nc(/C(=N/O)C(=O)NC2C(=O)N3C(C(=O)O)=C(Sc4nncs4)CCC23)c(Cl)s1` (stereo not drawn), in series [1], the “Human Serum Binding” value is recorded as 66.9%. Also, the MIC in series [2] and in series [3] was 2 µg/mL (≈ 3.98 µM) each time.
For `Nc1nnc(SC2=C(C(=O)O)N3C(=O)C(NC(=O)/C(=N\O)c4nc(N)sc4Cl)C3CC2)s1` (stereo not drawn), the “Human Serum Binding” value in series [1] came to 68.0%. Also, the MIC in series [2] is 1 µg/mL (≈ 1.93 µM); in series [3], 2 µg/mL (≈ 3.87 µM).
For the compound `Nc1nc(/C(=N/OCCF)C(=O)N[C@@H]2C(=O)N3C(C(=O)O)=C(Sc4nc5ccc([N+](=O)[O-])cc5s4)CCC23)cs1` (stereo partly drawn) [compound (3)], the MIC in series [4] was 4 µg/mL (≈ 6.58 µM). In addition, the serum binding in series [5] was 99.6%.
`Nc1nc(/C(=N/OCCF)C(=O)N[C@@H]2C(=O)N3C(C(=O)O)=C(Sc4nc5cnccc5s4)CCC23)cs1` (stereo partly drawn) [compound (4)]: the MIC in series [4] is 64 µg/mL (≈ 114 µM). In series [5], the serum binding was 36%.
Take `Nc1nc(/C(=N/OCCF)C(=O)N[C@@H]2C(=O)N3C(C(=O)O)=C(Sc4nncs4)CCC23)cs1` (stereo partly drawn) [compound (2)]: the MIC in series [4] was 2 µg/mL (≈ 3.89 µM). Besides, the serum binding in series [5] is more than 99.2%.
For the compound `NCCSCc1cnccc1SC1=C(C(=O)O)N2C(=O)C(NC(=O)/C(=N\O)c3nc(N)sc3Cl)C2CC1` (stereo not drawn), the “Human Serum Binding” value in series [1] came to 74.5%. Also, the MIC in series [2] and in series [3] was 1 µg/mL (≈ 1.71 µM) in each case.
Consider `NCCSCc1ncccc1SC1=C(C(=O)O)N2C(=O)C(NC(=O)/C(=N\O)c3nc(N)sc3Cl)C2CC1` (stereo not drawn), for which the “Human Serum Binding” value in series [1] amounted to 89.4%. Moreover, the results for the MIC in series [2] and in series [3] were 1 µg/mL (≈ 1.71 µM) and 2 µg/mL (≈ 3.42 µM), respectively.
